Test results reported in PMC4413606, “Identification of a new class of natural product MDM2 inhibitor: In vitro and in vivo anti-breast cancer activities and target validation” (Oncotarget, 2014).

Biological target: T1, MDM2 (Homo sapiens, UniProt Q00987)
T1 construct: GST-MDM2
Assay: fluorescence polarization competitive binding assay (PMDM6-F tracer); also cellular thermal shift assay in MCF-7 and MDA-MB-231 cells

T1 sequence (Q00987 whole entry): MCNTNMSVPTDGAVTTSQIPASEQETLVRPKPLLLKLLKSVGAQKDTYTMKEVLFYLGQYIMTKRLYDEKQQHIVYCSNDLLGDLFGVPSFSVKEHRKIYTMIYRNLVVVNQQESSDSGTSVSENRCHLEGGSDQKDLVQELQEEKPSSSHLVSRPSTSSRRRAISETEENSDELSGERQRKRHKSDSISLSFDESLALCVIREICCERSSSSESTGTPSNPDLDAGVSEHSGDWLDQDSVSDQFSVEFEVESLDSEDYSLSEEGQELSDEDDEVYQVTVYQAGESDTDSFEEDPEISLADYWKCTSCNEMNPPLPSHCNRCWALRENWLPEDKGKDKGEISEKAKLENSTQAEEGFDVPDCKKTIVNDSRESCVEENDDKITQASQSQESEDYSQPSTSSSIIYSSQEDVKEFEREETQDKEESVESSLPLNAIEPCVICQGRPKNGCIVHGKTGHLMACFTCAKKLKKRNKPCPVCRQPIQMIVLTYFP

**Q.** With JapA as the substance, how does the Ki read?
**A.** The Ki was 270 nM.
